Laboratory results from PubChem BioAssay (NCI).
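Test compounds were applied to cells in 96-well plates for 48 hours at 5 doses. GI50: concentration for 50% inhibition of growth. Definition used: TGI = concentration required for complete inhibition of growth.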

Legend:
Assay in all cases: DTP human tumour cell line panel, 48 h
CAKI-1 renal = tested on: CAKI-1 renal
HOP-62 NSCLC = tested on: HOP-62 NSCLC
IGROV1 ovarian = tested on: IGROV1 ovarian
K-562 leukemia = tested on: K-562 leukemia
LOX IMVI melanoma = tested on: LOX IMVI melanoma
MDA-MB-435 = tested on: MDA-MB-435
SF-539 CNS = tested on: SF-539 CNS
SK-MEL-2 melanoma = tested on: SK-MEL-2 melanoma
SNB-75 CNS = tested on: SNB-75 CNS

SMILES	TGI (CAKI-1 renal) [µM]	TGI (HOP-62 NSCLC) [µM]	TGI (IGROV1 ovarian) [µM]	TGI (K-562 leukemia) [µM]	TGI (LOX IMVI melanoma) [µM]	TGI (MDA-MB-435) [µM]	TGI (SF-539 CNS) [µM]	TGI (SK-MEL-2 melanoma) [µM]	TGI (SNB-75 CNS) [µM]	GI50 (CAKI-1 renal) [µM]	GI50 (HOP-62 NSCLC) [µM]	GI50 (IGROV1 ovarian) [µM]	GI50 (K-562 leukemia) [µM]	GI50 (LOX IMVI melanoma) [µM]	GI50 (MDA-MB-435) [µM]	GI50 (SF-539 CNS) [µM]	GI50 (SK-MEL-2 melanoma) [µM]	GI50 (SNB-75 CNS) [µM]
Cc1c(C(=O)OCc2ccccc2)[n+](=O)c2cc(Cl)c(Cl)cc2n1[O-]	28.2	30.5	19	57.6	35.7	42.4	55.9	38.6	–	–	–	–	–	–	–	–	–	–
O=c1oc(C(C(F)(F)F)C(F)(F)F)nc2ccccc12	> 100	> 100	> 100	> 100	> 100	> 100	> 100	> 100	–	–	–	–	–	–	–	–	–	–
CC(C)(C)CC(C)(C)c1cc(O)c(O)c(CN2CCCCC2)c1	27.9	30.1	34.6	19.3	24.3	37.1	–	–	37.3	–	–	–	–	–	–	–	–	–
CC(C)/C(Cl)=N\OC(NC(=O)P(=O)(c1ccccc1)c1ccccc1)(C(F)(F)F)C(F)(F)F	46.3	32.9	28.4	23.8	29.6	30.6	27.6	–	–	–	–	–	–	–	–	–	–	–
Cc1nnc2n1N=C(c1ccc(Cl)cc1Cl)/C(=C/c1ccc(-c3ccc([N+](=O)[O-])cc3Cl)o1)S2	84.8	> 100	> 100	26.9	27.4	29	36.6	> 100	> 100	25.2	> 100	27.5	13.6	12.3	13.5	18.5	32.8	73.2
COc1cnc2c(c1)C(=O)c1c-2n(CCCNCCO)c(=O)c2ccncc12	13	26.6	> 100	13	3.9	2.98	6.95	4.75	4.2	1.37	1.32	2.65	0.856	0.431	1.31	1.4	1.81	1.13
C=C(C)CC1(O[Si](C)(C)C)C(=O)C(OCC)=C1OCC (centres undefined)	> 100	> 100	> 100	–	> 100	> 100	> 100	> 100	> 100	–	–	–	–	–	–	–	–	–
CN(Cc1cnc2nc(N)nc(N)c2n1)c1ccc(C(=O)NC(CO)CCCO)cc1 (centres undefined)	> 100	> 100	> 100	> 100	> 100	> 100	> 100	> 100	> 100	–	–	–	–	–	–	–	–	–
C=CCC1C(O[Si](C)(C)C(C)(C)C)C(CO[Si](C)(C)C(C)(C)C)OC1n1ccc(=O)[nH]c1=O (centres undefined)	–	–	3.02	–	2.25	4.33	3.03	4.65	2.79	–	–	–	–	–	–	–	–	–
CC1(C)CC(=O)C2(CC(CSc3ccccc3)C(CS(=O)(=O)c3ccccc3)C2)C(=O)C1 (centres undefined)	> 100	> 100	> 100	> 100	> 100	> 100	> 100	> 100	> 100	–	–	–	–	–	–	–	–	–
COc1ccc(Nc2ccc3ccccc3c2-c2c(O)ccc3ccccc23)cc1	31.7	25.1	23	54.4	37.7	20.3	51.1	28.3	46.2	–	–	–	–	–	–	–	–	–
COc1ccc(C(=O)CC(c2ccccc2)[C@H]2C(c3ccc(OC)cc3)=Nc3c(nc(SC)n(C)c3=O)NC2c2ccccc2)cc1 (some centres undefined)	> 100	> 100	> 100	> 100	> 100	> 100	> 100	> 100	–	–	–	–	–	–	–	–	–	–
CCOP(=O)(OCC)/C(=C/c1cccs1)CC(C)=O	> 100	> 100	> 100	> 100	> 100	> 100	> 100	> 100	> 100	–	–	–	–	–	–	–	–	–
CCOC(=O)Nn1c(CC#N)nnc1Cc1ccccc1	> 100	> 100	> 100	> 100	–	> 100	> 100	> 100	> 100	–	–	–	–	–	–	–	–	–
O=C1NC(=O)C(C(CC(=O)c2ccc(Cl)cc2)c2ccc(Cl)cc2)C(=O)N1 (centres undefined)	–	> 100	> 100	> 100	> 100	> 100	> 100	> 100	> 100	–	–	–	–	–	–	–	–	–
C/C(=N\Nc1nc2ccccc2n1C)c1cc2ccccc2cn1	12.5	> 26.3	0.423	> 100	4.33	9.89	14.5	–	11.8	–	–	–	–	–	–	–	–	–
CC(C)=CCNc1nc(Cl)nc2nc[nH]c12	> 100	79.2	> 100	> 100	> 100	> 100	> 100	–	> 100	–	–	–	–	–	–	–	–	–
Cc1ccc(S(=O)(=O)Nn2c(O)c(C#N)c(-c3ccc(Cl)cc3)c(C#N)c2=O)cc1	> 100	> 100	> 100	> 100	> 100	> 100	> 100	> 100	> 100	–	–	–	–	–	–	–	–	–
C=CC[n+]1c2ccccc2n2cc([N+](=O)[O-])ccc21	> 100	> 100	51.5	59.2	> 100	89.2	> 100	95.8	> 100	–	–	–	–	–	–	–	–	–
Cc1nc(N)c(N2CCN(CN)CC2)c(=O)[nH]1	–	> 100	–	> 100	> 100	> 100	> 100	> 100	> 100	–	–	–	–	–	–	–	–	–
CCOP(=O)(O)CN1CCNCCN(CP(=O)(O)OCC)CCNCC1	> 100	> 100	> 100	> 100	> 100	> 100	> 100	> 100	> 100	–	–	–	–	–	–	–	–	–
COC(=O)C1C(=O)N(C)C(=O)N2CCCC12 (centres undefined)	> 100	> 100	> 100	> 100	> 100	> 100	> 100	> 100	> 100	–	–	–	–	–	–	–	–	–
C=CCP(=O)(CC=C)C(Cl)Cl	> 100	> 100	> 100	> 100	> 100	–	–	> 100	> 100	–	–	–	–	–	–	–	–	–
NCC(O)CSCc1ccc(Cl)cc1 (centres undefined)	> 100	> 100	> 100	> 100	> 100	> 100	–	–	–	–	–	–	–	–	–	–	–	–

SMILES	TGI (CAKI-1 renal) [µM]	TGI (HOP-62 NSCLC) [µM]	TGI (IGROV1 ovarian) [µM]	TGI (K-562 leukemia) [µM]	TGI (LOX IMVI melanoma) [µM]	TGI (MDA-MB-435) [µM]	TGI (SF-539 CNS) [µM]	TGI (SK-MEL-2 melanoma) [µM]	TGI (SNB-75 CNS) [µM]	GI50 (CAKI-1 renal) [µM]	GI50 (HOP-62 NSCLC) [µM]	GI50 (IGROV1 ovarian) [µM]	GI50 (K-562 leukemia) [µM]	GI50 (LOX IMVI melanoma) [µM]	GI50 (MDA-MB-435) [µM]	GI50 (SF-539 CNS) [µM]	GI50 (SK-MEL-2 melanoma) [µM]	GI50 (SNB-75 CNS) [µM]
C#CCn1c(=O)c(C)cn(/C(=C\C(=O)OCC)C(=O)OCC)c1=O	2.86	39.2	15.3	> 100	> 50.2	21.2	4.25	32.8	36	–	–	–	–	–	–	–	–	–
COc1cc(C2C(Cl)C(=O)N2c2c(C)n(C)n(-c3ccccc3)c2=O)ccc1O (centres undefined)	> 100	73.2	29.1	> 100	32.2	31.8	39.4	50.4	–	–	–	–	–	–	–	–	–	–
COc1ccc(-c2oc3cc(O)cc(O)c3c(=O)c2OC)cc1	60	> 100	> 100	> 100	> 100	> 100	–	–	–	–	–	–	–	–	–	–	–	–
Cc1cc2c([nH]c3ccccc32)c(O)c1-c1c(C)cc2c([nH]c3ccccc32)c1O	27.9	31.5	25.2	25.9	32.7	28.2	31.7	30.6	27.5	14.7	–	–	12.3	–	15	–	–	–
CCCCCCCCCCCCCCCCCCNc1nc(=O)n(C2CC(O)C(COP(=O)(O)O)O2)cc1F (centres undefined)	> 100	> 100	> 100	> 100	> 100	> 100	> 100	> 100	> 100	–	–	–	–	–	–	–	–	–
Cn1c(=O)oc2nc(-c3ccccc3)cc(C(F)(F)F)c21	> 100	> 100	> 100	–	–	> 100	> 100	> 100	> 100	–	–	–	–	–	–	–	–	–
O=C1OC[C@H]2[C@@H]1[C@H]1O[C@@H]2C2=C(CCC2)C1=O	–	> 100	> 100	> 100	> 100	> 100	> 100	> 100	> 100	–	–	–	–	–	–	–	–	–
Cc1cc(OC(=O)NCn2cc(-c3ccccc3)nn2)ccc1Cl	> 100	> 100	> 100	> 100	> 100	–	> 100	> 100	> 100	–	–	–	–	–	–	–	–	–
CCOC(=O)c1cc(C)nc2c1c(=O)n(-c1ccccc1)c(=O)n2CCCCN1CCN(c2ccccc2)CC1	–	> 100	> 100	> 100	> 100	> 100	–	> 100	> 100	–	–	–	–	–	–	–	–	–
C=CCOn1c(C=C)nc2ccc(C)cc21	49.3	78.3	> 100	55.3	37.5	44.5	–	30.6	43.4	–	–	–	–	–	–	–	–	–
O=C1CC(=O)n2cnc3cccc(c32)N1	> 100	> 100	> 100	> 100	–	> 100	> 100	> 100	> 100	–	–	–	–	–	–	–	–	–
CCN=C1C=CC(=C(c2ccc(N(CC)CC)cc2)c2ccc(N(CC)CC)cc2)c2ccccc21	0.273	0.846	–	–	–	0.428	–	0.383	0.879	0.0335	0.159	–	–	–	0.0733	–	0.0768	0.0304
O=c1[nH]n(Cc2ccccc2)c2ccc([N+](=O)[O-])cc12	> 100	> 100	> 100	> 100	> 100	85.3	> 100	> 100	–	–	–	–	–	–	–	–	–	–
CC(C)(C)n1c(=O)[nH]c(=O)n1C(C)(C)C	> 100	> 100	> 100	> 100	> 100	–	> 100	> 100	> 100	–	–	–	–	–	–	–	–	–
Nc1nc(Cl)cc(NC23CC4CC(CC(C4)C2)C3)n1	> 100	> 100	> 100	> 100	–	> 100	> 100	71.4	90.8	–	–	–	–	–	–	–	–	–
Cc1cc(C)c2c(c1)C(=O)/C(=C/c1ccccc1C(=O)O)C2	> 100	> 100	> 100	> 100	> 100	–	89.3	> 100	> 100	–	–	–	–	–	–	–	–	–
CC(C)(C)[Si](C)(C)OCc1cccc(OCCOc2cccc(CO[Si](C)(C)C(C)(C)C)c2[N+](=O)[O-])c1[N+](=O)[O-]	> 100	> 100	> 100	–	> 100	> 100	> 100	> 100	> 100	–	–	–	–	–	–	–	–	–
O=[N+]([O-])c1cccc(N=Nc2c(O)c(S(=O)(=O)O)cc3cc(S(=O)(=O)O)ccc23)c1	> 100	> 100	> 100	> 100	–	> 100	> 100	> 100	> 100	–	–	–	–	–	–	–	–	–
c1ccc(/C(=N/Nc2ccncn2)c2ccccn2)cc1	> 100	> 100	53.6	> 100	–	> 100	> 100	> 100	57.8	–	–	–	–	–	–	–	–	–
Cc1ccc(S(=O)CC(CF)OCn2cc(C)c(=O)[nH]c2=O)cc1 (centres undefined)	> 100	> 100	> 100	–	> 100	> 100	> 100	> 100	> 100	–	–	–	–	–	–	–	–	–
CN(C)/N=N/c1nc2c(c(=O)n(C)c(=O)n2C)n1CC(O)CO (centres undefined)	> 100	> 100	> 100	> 100	–	> 100	–	> 100	> 100	–	–	–	–	–	–	–	–	–
O=C(N/N=C/C=C/c1ccccc1)c1ccccc1Nc1ccccc1C(=O)N/N=C/C=C/c1ccccc1	> 100	70.4	> 100	> 100	–	> 100	–	> 100	> 100	–	–	–	–	–	–	–	–	–
COc1cc(C2C3=C(COC3=O)Oc3cc4c(cc32)OCO4)cc(OC)c1O (centres undefined)	21.6	15.2	21.9	0.402	19	–	< 0.0148	2.51	–	–	–	–	–	–	–	–	–	–
O=C(Cc1ccc(Cl)c(Cl)c1)NCC1(N2CCCCC2)CCCCC1	> 100	> 100	> 100	> 100	> 100	> 100	–	> 100	–	–	–	–	–	–	–	–	–	–
